Reference: ChEMBL document CHEMBL4507305, “Data for DCP probe TP-024” (2021)

Legend:
[1] = target: Activin receptor type-1 (Homo sapiens) (UniProt Q04771); details: Compound concentration 1000.0 nM
[2] = target: Serine/threonine-protein kinase BRSK1 (Homo sapiens) (UniProt Q8TDC3); details: Compound concentration 1000.0 nM
[3] = target: Kappa-type opioid receptor (Homo sapiens) (UniProt P41145); details: Compound concentration 10.0 uM
[4] = target: Casein kinase I isoform epsilon (Homo sapiens) (UniProt P49674); details: Compound concentration 1000.0 nM
[5] = target: GABA-A receptor; anion channel (Rattus norvegicus) (UniProt O09028+P15431+P18506+P18508+P19969+P20236+P23574+P23576+P28471+P28473+P30191+P62813+P63079+P63138+Q91ZM7+Q9ES14); details: Compound concentration 10.0 uM
[6] = target: Mitogen-activated protein kinase kinase kinase kinase 2 (Homo sapiens) (UniProt Q12851); details: Compound concentration 1000.0 nM
[7] = test system: Epidermal growth factor receptor (Homo sapiens), P00533 [L858R,T790M]; details: Compound concentration 1000.0 nM
[8] = target: Dual specificity protein kinase TTK (Homo sapiens) (UniProt P33981); details: Compound concentration 1000.0 nM
[9] = target: Mitogen-activated protein kinase 6 (Homo sapiens) (UniProt Q16659); details: Compound concentration 1000.0 nM
[10] = target: Serine/threonine-protein kinase PLK2 (Homo sapiens) (UniProt Q9NYY3); details: Compound concentration 1000.0 nM
[11] = target: Dual specificity mitogen-activated protein kinase kinase 6 (Homo sapiens) (UniProt P52564); details: Compound concentration 1000.0 nM
[12] = target: Calcium/calmodulin-dependent protein kinase kinase 2 (Homo sapiens) (UniProt Q96RR4); details: Compound concentration 1000.0 nM
[13] = target: Macrophage-stimulating protein receptor (Homo sapiens) (UniProt Q04912); details: Compound concentration 1000.0 nM
[14] = target: Phosphatidylinositol 4-phosphate 5-kinase type-1 gamma (Homo sapiens) (UniProt O60331); details: Compound concentration 1000.0 nM
[15] = target: Muscarinic acetylcholine receptor M5 (Homo sapiens) (UniProt P08912); details: Compound concentration 10.0 uM
[16] = target: Dual specificity mitogen-activated protein kinase kinase 2 (Homo sapiens) (UniProt P36507); details: Compound concentration 1000.0 nM
[17] = target: Bone morphogenetic protein receptor type-1A (Homo sapiens) (UniProt P36894); details: Compound concentration 1000.0 nM
[18] = target: Serine/threonine-protein kinase pim-3 (Homo sapiens) (UniProt Q86V86); details: Compound concentration 1000.0 nM
[19] = target: Serine/threonine-protein kinase DCLK3 (Homo sapiens) (UniProt Q9C098); details: Compound concentration 1000.0 nM
[20] = target: Ribosomal protein S6 kinase alpha-2 (Homo sapiens) (UniProt Q15349); details: Compound concentration 1000.0 nM
[21] = target: Beta-1 adrenergic receptor (Homo sapiens) (UniProt P08588); details: Compound concentration 10.0 uM
[22] = target: Serine/threonine-protein kinase PAK 6 (Homo sapiens) (UniProt Q9NQU5); details: Compound concentration 1000.0 nM
[23] = target: Tyrosine-protein kinase Mer (Homo sapiens) (UniProt Q12866); details: Compound concentration 1000.0 nM
[24] = target: Membrane-associated tyrosine- and threonine-specific cdc2-inhibitory kinase (Homo sapiens) (UniProt Q99640); details: Compound concentration 1000.0 nM
[25] = target: Cyclin-dependent kinase 15 (Homo sapiens) (UniProt Q96Q40); details: Compound concentration 1000.0 nM
[26] = target: Serine/threonine-protein kinase RIO1 (Homo sapiens) (UniProt Q9BRS2); details: Compound concentration 1000.0 nM
[27] = target: Serine/threonine-protein kinase Nek1 (Homo sapiens) (UniProt Q96PY6); details: Compound concentration 1000.0 nM
[28] = target: Calcium/calmodulin-dependent protein kinase type II subunit alpha (Homo sapiens) (UniProt Q9UQM7); details: Compound concentration 1000.0 nM
[29] = target: Calcium/calmodulin-dependent protein kinase type 1D (Homo sapiens) (UniProt Q8IU85); details: Compound concentration 1000.0 nM
[30] = test system: Mast/stem cell growth factor receptor Kit (Homo sapiens), P10721 [D816H]; details: Compound concentration 1000.0 nM
[31] = target: 5-hydroxytryptamine receptor 2C (Homo sapiens) (UniProt P28335); details: Compound concentration 10.0 uM
[32] = test system: Epidermal growth factor receptor (Homo sapiens), P00533 [UNDEFINED MUTATION]; details: Compound concentration 1000.0 nM
[33] = target: Receptor-interacting serine/threonine-protein kinase 2 (Homo sapiens) (UniProt O43353); details: Compound concentration 1000.0 nM
[34] = target: Mitogen-activated protein kinase kinase kinase kinase 1 (Homo sapiens) (UniProt Q92918); details: Compound concentration 1000.0 nM
[35] = target: Serine/threonine-protein kinase 24 (Homo sapiens) (UniProt Q9Y6E0); details: Compound concentration 1000.0 nM
[36] = target: Protein kinase C eta type (Homo sapiens) (UniProt P24723); details: Compound concentration 1000.0 nM
[37] = target: STE20-like serine/threonine-protein kinase (Homo sapiens) (UniProt Q9H2G2); details: Compound concentration 1000.0 nM
[38] = target: Receptor tyrosine-protein kinase erbB-2 (Homo sapiens) (UniProt P04626); details: Compound concentration 1000.0 nM
[39] = target: Serine/threonine-protein kinase WNK3 (Homo sapiens) (UniProt Q9BYP7); details: Compound concentration 1000.0 nM
[40] = target: Dual specificity mitogen-activated protein kinase kinase 4 (Homo sapiens) (UniProt P45985); details: Compound concentration 1000.0 nM
[41] = target: MAP kinase-interacting serine/threonine-protein kinase 2 (Homo sapiens) (UniProt Q9HBH9); details: Compound concentration 1000.0 nM
[42] = target: Serine/threonine-protein kinase STK11 (Homo sapiens) (UniProt Q15831); details: Compound concentration 1000.0 nM
[43] = test system: Tyrosine-protein kinase ABL1 (Homo sapiens), P00519 [F317I]; details: Compound concentration 1000.0 nM

Chain of Dual specificity mitogen-activated protein kinase kinase 4 (Homo sapiens) (P45985 whole entry): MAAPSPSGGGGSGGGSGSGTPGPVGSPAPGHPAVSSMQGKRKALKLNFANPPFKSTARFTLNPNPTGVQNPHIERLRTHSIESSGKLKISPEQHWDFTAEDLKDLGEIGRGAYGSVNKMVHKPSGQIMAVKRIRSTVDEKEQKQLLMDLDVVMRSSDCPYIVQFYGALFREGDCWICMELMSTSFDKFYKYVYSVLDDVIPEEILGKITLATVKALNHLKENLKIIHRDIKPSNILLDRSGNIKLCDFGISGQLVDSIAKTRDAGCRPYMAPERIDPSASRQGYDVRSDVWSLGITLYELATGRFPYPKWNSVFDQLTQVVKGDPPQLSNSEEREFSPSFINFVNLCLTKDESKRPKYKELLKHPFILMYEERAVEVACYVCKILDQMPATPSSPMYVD
Chain of Serine/threonine-protein kinase 24 (Homo sapiens) (Q9Y6E0 whole entry, looked up): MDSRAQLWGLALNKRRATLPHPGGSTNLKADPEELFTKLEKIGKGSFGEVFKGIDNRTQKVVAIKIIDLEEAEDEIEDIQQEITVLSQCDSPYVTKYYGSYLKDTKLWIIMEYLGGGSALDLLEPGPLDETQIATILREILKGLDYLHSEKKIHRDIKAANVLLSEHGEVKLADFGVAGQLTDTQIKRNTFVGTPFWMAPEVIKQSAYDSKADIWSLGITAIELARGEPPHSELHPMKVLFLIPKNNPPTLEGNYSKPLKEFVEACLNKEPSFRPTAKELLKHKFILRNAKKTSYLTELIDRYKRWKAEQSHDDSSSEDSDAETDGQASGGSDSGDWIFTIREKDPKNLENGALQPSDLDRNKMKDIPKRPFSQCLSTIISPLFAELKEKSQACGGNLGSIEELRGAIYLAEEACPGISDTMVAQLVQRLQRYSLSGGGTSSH
Chain of Macrophage-stimulating protein receptor (Homo sapiens) (Q04912 25-304 limits assumed): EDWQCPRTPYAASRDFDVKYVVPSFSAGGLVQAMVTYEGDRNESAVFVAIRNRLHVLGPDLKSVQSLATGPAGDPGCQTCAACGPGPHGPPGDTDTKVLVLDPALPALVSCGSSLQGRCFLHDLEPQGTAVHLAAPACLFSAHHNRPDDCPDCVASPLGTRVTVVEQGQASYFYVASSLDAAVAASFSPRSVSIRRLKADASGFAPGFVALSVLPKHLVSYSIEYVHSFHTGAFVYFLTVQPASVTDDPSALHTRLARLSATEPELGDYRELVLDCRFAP
Chain of Macrophage-stimulating protein receptor (Homo sapiens) (Q04912 310-1400 limits assumed): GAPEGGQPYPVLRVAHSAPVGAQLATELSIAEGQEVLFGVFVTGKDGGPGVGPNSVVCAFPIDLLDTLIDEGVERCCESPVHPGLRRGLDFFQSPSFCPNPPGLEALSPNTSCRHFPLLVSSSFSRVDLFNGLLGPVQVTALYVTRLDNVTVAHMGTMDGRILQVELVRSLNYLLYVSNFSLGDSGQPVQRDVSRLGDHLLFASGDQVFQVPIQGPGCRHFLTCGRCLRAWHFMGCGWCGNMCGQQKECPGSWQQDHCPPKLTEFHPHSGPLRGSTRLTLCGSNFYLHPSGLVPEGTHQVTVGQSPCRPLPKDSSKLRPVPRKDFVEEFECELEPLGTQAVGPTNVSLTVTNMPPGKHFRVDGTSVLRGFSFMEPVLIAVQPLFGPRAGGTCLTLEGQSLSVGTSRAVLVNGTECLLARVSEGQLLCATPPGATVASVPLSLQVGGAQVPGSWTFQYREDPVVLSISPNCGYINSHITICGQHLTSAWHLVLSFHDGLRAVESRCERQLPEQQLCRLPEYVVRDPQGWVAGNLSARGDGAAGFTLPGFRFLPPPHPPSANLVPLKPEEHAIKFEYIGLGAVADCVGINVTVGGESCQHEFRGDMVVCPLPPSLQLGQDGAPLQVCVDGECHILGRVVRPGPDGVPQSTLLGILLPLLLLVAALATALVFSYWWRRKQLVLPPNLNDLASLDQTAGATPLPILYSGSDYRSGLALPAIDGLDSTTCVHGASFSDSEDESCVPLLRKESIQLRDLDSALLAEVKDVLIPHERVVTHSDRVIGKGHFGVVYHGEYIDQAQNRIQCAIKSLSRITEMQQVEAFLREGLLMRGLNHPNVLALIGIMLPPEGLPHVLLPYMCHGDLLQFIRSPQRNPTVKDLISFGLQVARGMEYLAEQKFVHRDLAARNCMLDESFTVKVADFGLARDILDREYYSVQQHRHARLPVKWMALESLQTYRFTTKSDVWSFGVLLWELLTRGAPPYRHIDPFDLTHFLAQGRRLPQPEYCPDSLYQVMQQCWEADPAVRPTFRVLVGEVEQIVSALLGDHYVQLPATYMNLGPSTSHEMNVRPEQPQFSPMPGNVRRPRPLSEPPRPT
Chain of Serine/threonine-protein kinase BRSK1 (Homo sapiens) (Q8TDC3 whole entry): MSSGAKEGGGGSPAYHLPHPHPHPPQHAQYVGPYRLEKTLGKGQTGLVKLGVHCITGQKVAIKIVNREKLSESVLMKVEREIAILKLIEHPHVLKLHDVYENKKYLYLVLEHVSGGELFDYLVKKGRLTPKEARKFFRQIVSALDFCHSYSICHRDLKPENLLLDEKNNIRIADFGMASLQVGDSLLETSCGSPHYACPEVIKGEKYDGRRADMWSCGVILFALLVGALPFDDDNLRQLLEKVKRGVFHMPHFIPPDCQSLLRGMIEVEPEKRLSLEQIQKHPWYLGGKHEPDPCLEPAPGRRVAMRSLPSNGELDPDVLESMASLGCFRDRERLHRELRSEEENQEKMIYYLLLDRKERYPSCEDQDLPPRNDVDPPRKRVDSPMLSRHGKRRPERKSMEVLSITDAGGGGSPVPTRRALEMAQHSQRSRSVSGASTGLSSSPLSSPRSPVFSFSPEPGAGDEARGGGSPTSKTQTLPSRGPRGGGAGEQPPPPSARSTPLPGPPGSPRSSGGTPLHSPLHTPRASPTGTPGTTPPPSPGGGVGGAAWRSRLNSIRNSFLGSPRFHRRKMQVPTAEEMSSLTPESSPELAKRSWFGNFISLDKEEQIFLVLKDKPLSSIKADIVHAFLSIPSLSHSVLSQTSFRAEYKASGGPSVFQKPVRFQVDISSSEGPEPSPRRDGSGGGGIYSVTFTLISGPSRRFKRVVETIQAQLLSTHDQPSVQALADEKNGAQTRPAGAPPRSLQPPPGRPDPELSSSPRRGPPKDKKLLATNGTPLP
Chain of MAP kinase-interacting serine/threonine-protein kinase 2 (Homo sapiens) (Q9HBH9 whole entry, looked up): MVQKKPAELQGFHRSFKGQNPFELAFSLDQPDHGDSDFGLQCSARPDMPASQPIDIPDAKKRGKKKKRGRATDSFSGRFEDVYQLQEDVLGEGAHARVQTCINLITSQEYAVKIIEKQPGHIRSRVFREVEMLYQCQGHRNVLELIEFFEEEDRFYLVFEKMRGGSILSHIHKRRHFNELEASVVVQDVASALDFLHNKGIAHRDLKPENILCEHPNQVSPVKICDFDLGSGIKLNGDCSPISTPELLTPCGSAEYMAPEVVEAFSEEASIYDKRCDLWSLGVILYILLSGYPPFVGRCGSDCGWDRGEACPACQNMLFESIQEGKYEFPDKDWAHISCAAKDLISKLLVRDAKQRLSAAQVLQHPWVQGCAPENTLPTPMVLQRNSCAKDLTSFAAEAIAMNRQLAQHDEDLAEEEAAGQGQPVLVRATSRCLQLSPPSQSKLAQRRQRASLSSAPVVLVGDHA
Chain of Casein kinase I isoform epsilon (Homo sapiens) (P49674 whole entry, looked up, canonical isoform): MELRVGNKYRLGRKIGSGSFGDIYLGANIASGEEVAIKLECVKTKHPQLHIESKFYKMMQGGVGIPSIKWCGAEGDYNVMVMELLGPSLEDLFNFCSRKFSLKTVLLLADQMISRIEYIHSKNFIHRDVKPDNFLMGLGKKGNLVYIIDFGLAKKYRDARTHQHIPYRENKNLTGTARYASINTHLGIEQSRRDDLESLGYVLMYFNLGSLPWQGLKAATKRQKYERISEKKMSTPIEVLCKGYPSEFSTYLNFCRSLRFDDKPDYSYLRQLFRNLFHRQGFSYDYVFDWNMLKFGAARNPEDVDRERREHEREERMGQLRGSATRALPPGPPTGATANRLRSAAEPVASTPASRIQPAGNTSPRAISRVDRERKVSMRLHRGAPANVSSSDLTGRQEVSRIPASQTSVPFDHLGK
Chain of Beta-1 adrenergic receptor (Homo sapiens) (P08588 whole entry, looked up): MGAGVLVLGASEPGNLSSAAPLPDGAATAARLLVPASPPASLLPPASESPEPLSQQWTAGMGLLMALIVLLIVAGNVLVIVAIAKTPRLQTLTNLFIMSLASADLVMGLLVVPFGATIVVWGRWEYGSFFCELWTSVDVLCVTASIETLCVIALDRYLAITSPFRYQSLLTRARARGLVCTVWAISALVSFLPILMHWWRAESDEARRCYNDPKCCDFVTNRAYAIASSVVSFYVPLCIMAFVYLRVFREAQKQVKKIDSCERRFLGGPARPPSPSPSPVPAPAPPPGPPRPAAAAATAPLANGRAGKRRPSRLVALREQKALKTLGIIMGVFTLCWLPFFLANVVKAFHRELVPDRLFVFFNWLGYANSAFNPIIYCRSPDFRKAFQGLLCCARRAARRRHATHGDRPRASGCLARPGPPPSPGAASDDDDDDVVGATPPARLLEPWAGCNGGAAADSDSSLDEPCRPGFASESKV
Chain of 5-hydroxytryptamine receptor 2C (Homo sapiens) (P28335 whole entry): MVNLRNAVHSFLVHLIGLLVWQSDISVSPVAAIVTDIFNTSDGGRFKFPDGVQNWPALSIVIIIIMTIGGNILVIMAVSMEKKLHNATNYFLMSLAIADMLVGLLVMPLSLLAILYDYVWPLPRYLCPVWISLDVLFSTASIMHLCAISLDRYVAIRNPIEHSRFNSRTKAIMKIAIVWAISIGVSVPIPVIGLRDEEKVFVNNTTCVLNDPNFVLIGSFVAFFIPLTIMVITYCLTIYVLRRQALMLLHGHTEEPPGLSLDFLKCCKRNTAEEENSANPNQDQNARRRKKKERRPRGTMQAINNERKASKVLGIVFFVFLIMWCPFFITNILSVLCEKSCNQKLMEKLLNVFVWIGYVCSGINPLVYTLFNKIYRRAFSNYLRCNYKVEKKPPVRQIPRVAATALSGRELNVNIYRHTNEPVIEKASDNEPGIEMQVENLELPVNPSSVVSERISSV

Cc1nc(Cc2cccc(C(F)(F)F)c2)sc1-c1ccc(C(N)=O)nc1 [TP-024n]
residual activity [1]: 100%
residual activity [2]: 100%
inhibition [3]: 3.47%
residual activity [4]: 100%
inhibition [5]: 9.72%
residual activity [6]: 100%
residual activity [7]: 87%
residual activity [8]: 82%
residual activity [9]: 100%
residual activity [10]: 82%
residual activity [11]: 69%
residual activity [12]: 91%
residual activity [13]: 100%
residual activity [14]: 84%
inhibition [15]: 11.2%
residual activity [16]: 98%
residual activity [17]: 76%
residual activity [18]: 100%
residual activity [19]: 100%
residual activity [20]: 100%
inhibition [21]: 7.56%
residual activity [22]: 92%
residual activity [23]: 98%
residual activity [24]: 67%
residual activity [25]: 86%
residual activity [26]: 94%
residual activity [27]: 41%
residual activity [28]: 91%
residual activity [29]: 94%
residual activity [30]: 100%
inhibition [31]: 0.93%
residual activity [32]: 100%
residual activity [33]: 100%
residual activity [34]: 100%
residual activity [35]: 100%
residual activity [36]: 83%
residual activity [37]: 100%
residual activity [38]: 100%
residual activity [39]: 61%
residual activity [40]: 100%
residual activity [41]: 100%
residual activity [42]: 100%
residual activity [43]: 100%

Cc1cc(-n2nc(Cc3cc(F)cc(C(F)(F)F)c3)nc2C)ccc1C(N)=O [TP-024]
residual activity [1]: 100%
residual activity [2]: 100%
inhibition [3]: 16%
residual activity [4]: 100%
inhibition [5]: 14.4%
residual activity [6]: 100%
residual activity [7]: 90%
residual activity [8]: 90%
residual activity [9]: 100%
residual activity [10]: 100%
residual activity [11]: 83%
residual activity [12]: 100%
residual activity [13]: 100%
residual activity [14]: 66%
inhibition [15]: -2.07%
residual activity [16]: 100%
residual activity [17]: 85%
residual activity [18]: 100%
residual activity [19]: 94%
residual activity [20]: 100%
inhibition [21]: 11.8%
residual activity [22]: 100%
residual activity [23]: 100%
residual activity [24]: 88%
residual activity [25]: 88%
residual activity [26]: 85%
residual activity [27]: 54%
residual activity [28]: 99%
residual activity [29]: 96%
residual activity [30]: 100%
inhibition [31]: -5.34%
residual activity [32]: 100%
residual activity [33]: 100%
residual activity [34]: 100%
residual activity [35]: 100%
residual activity [36]: 97%
residual activity [37]: 92%
residual activity [38]: 99%
residual activity [39]: 100%
residual activity [40]: 100%
residual activity [41]: 100%
residual activity [42]: 100%
residual activity [43]: 100%
